Source: patent US20190136321A1, “USE OF TRANSLATIONAL PROFILING TO IDENTIFY TARGET MOLECULES FOR THERAPEUTIC TREATMENT” (The Regents of The University of California, priority 2013, published 2019)

Assays:
Format in all cases: cell-based, human
SW620 cells [1] = test: Proliferation assay on SW620 cells
SW620 cells [2] = test: Western blot of phosphorylation of protein translation components in SW620 cells
Experimental: (§1) SW620 cells (ATCC, passage 12) were seeded at about 75% confluence 24 hrs prior to drug treatment. […] About 6×10^6 cells/10 cm plate and about 1×10^6 cells/well of a 6-well plate were harvested for ribosome profiling and Western blot analysis, respectively, following drug treatment.
Cells were washed with PBS and lysed in 1× cell lysis buffer (Cell Signaling) for 15 min at 4° C. Lysates were sonicated briefly, clarified by centrifugation for 15 min at 14, 000 rpm, and supernatants were then collected. Protein concentration in the soluble fraction was determined by BCA protein assay (Thermo Scientific). A 4-20% Bis-Tris gradient gel (Invitrogen) was used to resolve 20 μg of protein and transferred to nitrocellulose membrane. The resulting membranes were blocked for 1 hr at room temperature with Odyssey blocking solution (LI-COR) and then incubated with primary antibodies at 4° C. overnight. The following day, the blots were washed 3 times, 10 min each in TBST, and incubated with IR-conjugated goat anti-rabbit IgG secondary antibody (IRDye 800 CW at 1:20,000; LI-COR) for 1 hour at room temperature. The blots were then washed, scanned, and specific proteins were detected using the LI-COR Odyssey infrared imager. The following antibodies from Cell Signaling were used at 1:1000 dilution: anti-phospho-eIF4E(Ser209)(#9741), anti-phospho-rpS6(Ser235/236)(#4858), anti-phospho-ERK1/2(Thr202/Tyr204)(#4370), anti-phospho-p70S6K(Thr421/Ser424)(#9204), anti-phospho-p90RSK(Thr359/Ser363)(#9344), anti-phospho-4EBP(Ser65), anti-phospho-pAKT(Ser473), anti-phospho-eIF4E(Ser209), and anti-β-actin (#4970). Actin was used as a loading amount control.

SW620 cells [3] = test: Ribosome profiling of SW620 cells (transcription, translational rate, translational efficiency); details: 8 hours
Experimental: SW620 human colon cancer cells were cultured in DMEM media supplemented with penicillin G (100 U/ml), streptomycin (100 μg/ml), and 10% FBS in a humidified atmosphere of 5% CO2 maintained at 37° C.
as §1

CC(=O)Nc1cccc(-n2c(=O)n(C3CC3)c(=O)c3c(Nc4ccc(I)cc4F)n(C)c(=O)c(C)c32)c1 [GSK212]
inhibition of proliferation or induction of apoptosis (SW620 cells [1]; 250 nM for 8 hours): No evidence | potency in 72 hour proliferation assays (SW620 cells [1]; 72 hour (data not shown)): 20 to 30 nM | phosphorylation of S6, eIF4E and 4EBP1 (SW620 cells [2]; 25 nM to 100 nM (data not shown)): little or no effect | Phosphorylation of ERK and p90RSK (SW620 cells [2]; 250 nM, 8 hrs): completely inhibited | phosphorylation of eIF4E (SW620 cells [2]; 250 nM, 8 hrs): partial inhibition | phosphorylation of the ribosomal protein S6 (rpS6) and S6K (p70RSK) (SW620 cells [2]; 250 nM, 8 hrs): only partial inhibition | Profile TE (SW620 cells [3]; gene ARID5A, 250 nM): −0.4 log2 MEKi/DMSO | Profile rna (SW620 cells [3]; gene ARID5A, 250 nM): −0.5 log2 MEKi/DMSO | Profile rpf (SW620 cells [3]; gene ARID5A, 250 nM): −0.9 log2 MEKi/DMSO | Profile TE (SW620 cells [3]; gene B4GALT6, 250 nM): 0.0 log2 MEKi/DMSO | Profile rna (SW620 cells [3]; gene B4GALT6, 250 nM): 0.0 log2 MEKi/DMSO | Profile rpf (SW620 cells [3]; gene B4GALT6, 250 nM): −0.1 log2 MEKi/DMSO | Profile TE (SW620 cells [3]; gene BXDC2/BRIX1, 250 nM): 0.2 log2 MEKi/DMSO | Profile rna (SW620 cells [3]; gene BXDC2/BRIX1, 250 nM): −1.1 log2 MEKi/DMSO | Profile rpf (SW620 cells [3]; gene BXDC2/BRIX1, 250 nM): −0.8 log2 MEKi/DMSO | Profile TE (SW620 cells [3]; gene BYSL, 250 nM): 0.2 log2 MEKi/DMSO | Profile rna (SW620 cells [3]; gene BYSL, 250 nM): −0.8 log2 MEKi/DMSO | Profile rpf (SW620 cells [3]; gene BYSL, 250 nM): −0.6 log2 MEKi/DMSO | Profile TE (SW620 cells [3]; gene CCND1, 250 nM): −0.3 log2 MEKi/DMSO | Profile rna (SW620 cells [3]; gene CCND1, 250 nM): −1.8 log2 MEKi/DMSO | Profile rpf (SW620 cells [3]; gene CCND1, 250 nM): −2.0 log2 MEKi/DMSO | Profile TE (SW620 cells [3]; gene CD3EAP, 250 nM): −0.5 log2 MEKi/DMSO | Profile rna (SW620 cells [3]; gene CD3EAP, 250 nM): −0.6 log2 MEKi/DMSO | Profile rpf (SW620 cells [3]; gene CD3EAP, 250 nM): −1.1 log2 MEKi/DMSO | Profile TE (SW620 cells [3]; gene CHSY1, 250 nM): −0.7 log2 MEKi/DMSO | Profile rna (SW620 cells [3]; gene CHSY1, 250 nM): 0.0 log2 MEKi/DMSO | Profile rpf (SW620 cells [3]; gene CHSY1, 250 nM): −0.7 log2 MEKi/DMSO | Profile TE (SW620 cells [3]; gene DDX21, 250 nM): −0.6 log2 MEKi/DMSO | Profile rna (SW620 cells [3]; gene DDX21, 250 nM): −0.3 log2 MEKi/DMSO | Profile rpf (SW620 cells [3]; gene DDX21, 250 nM): −1.0 log2 MEKi/DMSO | Profile TE (SW620 cells [3]; gene DUSP4, 250 nM): −0.4 log2 MEKi/DMSO | Profile rna (SW620 cells [3]; gene DUSP4, 250 nM): −2.0 log2 MEKi/DMSO | Profile rpf (SW620 cells [3]; gene DUSP4, 250 nM): −2.4 log2 MEKi/DMSO | Profile TE (SW620 cells [3]; gene DUSP6, 250 nM): −3.1 log2 MEKi/DMSO | Profile rna (SW620 cells [3]; gene DUSP6, 250 nM): −6.3 log2 MEKi/DMSO | Profile rpf (SW620 cells [3]; gene DUSP6, 250 nM): −9.3 log2 MEKi/DMSO | Profile TE (SW620 cells [3]; gene EGR1, 250 nM): −3.1 log2 MEKi/DMSO | Profile rna (SW620 cells [3]; gene EGR1, 250 nM): −1.0 log2 MEKi/DMSO | Profile rpf (SW620 cells [3]; gene EGR1, 250 nM): −4.1 log2 MEKi/DMSO | Profile TE (SW620 cells [3]; gene ELOVL6, 250 nM): 0.6 log2 MEKi/DMSO | Profile rna (SW620 cells [3]; gene ELOVL6, 250 nM): −1.4 log2 MEKi/DMSO | Profile rpf (SW620 cells [3]; gene ELOVL6, 250 nM): −0.8 log2 MEKi/DMSO | Profile rna (SW620 cells [3]; gene ETV1, 250 nM): −3.5 log2 MEKi/DMSO | Profile TE (SW620 cells [3]; gene ETV4, 250 nM): −0.6 log2 MEKi/DMSO | Profile rna (SW620 cells [3]; gene ETV4, 250 nM): −2.2 log2 MEKi/DMSO | Profile rpf (SW620 cells [3]; gene ETV4, 250 nM): −2.8 log2 MEKi/DMSO | Profile TE (SW620 cells [3]; gene ETV5, 250 nM): −3.0 log2 MEKi/DMSO | Profile rna (SW620 cells [3]; gene ETV5, 250 nM): −2.6 log2 MEKi/DMSO | Profile rpf (SW620 cells [3]; gene ETV5, 250 nM): −5.6 log2 MEKi/DMSO | Profile TE (SW620 cells [3]; gene FLJ10534/TSR1, 250 nM): −0.6 log2 MEKi/DMSO | Profile rna (SW620 cells [3]; gene FLJ10534/TSR1, 250 nM): −0.3 log2 MEKi/DMSO | Profile rpf (SW620 cells [3]; gene FLJ10534/TSR1, 250 nM): −0.8 log2 MEKi/DMSO | Profile TE (SW620 cells [3]; gene FOS, 250 nM): 0.2 log2 MEKi/DMSO | Profile rna (SW620 cells [3]; gene FOS, 250 nM): −2.9 log2 MEKi/DMSO | Profile rpf (SW620 cells [3]; gene FOS, 250 nM): −2.7 log2 MEKi/DMSO | Profile TE (SW620 cells [3]; gene FOSL1, 250 nM): −0.5 log2 MEKi/DMSO | Profile rna (SW620 cells [3]; gene FOSL1, 250 nM): −3.6 log2 MEKi/DMSO | Profile rpf (SW620 cells [3]; gene FOSL1, 250 nM): −4.1 log2 MEKi/DMSO | Profile TE (SW620 cells [3]; gene GEMIN4, 250 nM): −0.5 log2 MEKi/DMSO | Profile rna (SW620 cells [3]; gene GEMIN4, 250 nM): −0.1 log2 MEKi/DMSO | Profile rpf (SW620 cells [3]; gene GEMIN4, 250 nM): −0.6 log2 MEKi/DMSO | Profile TE (SW620 cells [3]; gene GNL3, 250 nM): −0.2 log2 MEKi/DMSO | Profile rna (SW620 cells [3]; gene GNL3, 250 nM): −0.7 log2 MEKi/DMSO | Profile rpf (SW620 cells [3]; gene GNL3, 250 nM): −0.8 log2 MEKi/DMSO | Profile rpf (SW620 cells [3]; gene GPR3, 250 nM): −2.8 log2 MEKi/DMSO | Profile TE (SW620 cells [3]; gene GTPBP4, 250 nM): −0.3 log2 MEKi/DMSO | Profile rna (SW620 cells [3]; gene GTPBP4, 250 nM): −0.4 log2 MEKi/DMSO | Profile rpf (SW620 cells [3]; gene GTPBP4, 250 nM): −0.7 log2 MEKi/DMSO | Profile TE (SW620 cells [3]; gene HMGA2, 250 nM): 1.2 log2 MEKi/DMSO | Profile rna (SW620 cells [3]; gene HMGA2, 250 nM): −2.9 log2 MEKi/DMSO | Profile rpf (SW620 cells [3]; gene HMGA2, 250 nM): −1.7 log2 MEKi/DMSO | Profile TE (SW620 cells [3]; gene HSPC111/NOP16, 250 nM): 0.6 log2 MEKi/DMSO | Profile rna (SW620 cells [3]; gene HSPC111/NOP16, 250 nM): −1.5 log2 MEKi/DMSO | Profile rpf (SW620 cells [3]; gene HSPC111/NOP16, 250 nM): −0.9 log2 MEKi/DMSO
